Experiments:
IL-1β = test: In vitro inhibition of IL-1β in human primary macrophages challenged with LPS (ELISA); format: cell-based; conditions: Primary macrophage, 2 hours compound pre-treatment, 100 ng/mL LPS, 16 hours, read-out: IC50 (IL-Iβ inhibition)
Experimental: Example 12—In Vitro Inhibition of IL-1β in Human Primary Macrophages Challenged with LPS
5 mL of RPMI media without serum (1:1) was added to a sample of 5 mL of human whole blood in EDTA or sodium citrate and mixed well by inversion. 3 mL of Histopaque-1077 was added to a 15 mL conical centrifuge tube and brought to room temperature. Using a transfer pipette, 10 mL of the blood-RPMI mixture was carefully layered onto the Histopaque-1077 and was centrifuged at 400×g for exactly 30 minutes at room temperature.
After centrifugation, a pasteur pipette was used to aspirate the upper layer to within 0.5 cm of the opaque interface containing the mononuclear cells. The upper layer was discarded. With a Pasteur pipette, the opaque interface was carefully transferred to a clean conical centrifuge tube. 5 mL RPMI was added to the tube and mixed by inversion, followed by centrifugation at 250×g for exactly 10 minutes. The supernatant was aspirated and discarded.
The leukocyte pellet was re-suspended with 5 mL RPMI and mixed gently with a Pasteur pipette, followed by centrifugation at 250×g for exactly 10 minutes. The pellet was washed 3× with PBS and re-suspended in RPMI medium.
2×10^5 PBMCs at a total volume of 200 μL/well were plated into a 96-well plate and incubated for 4 hrs at 37° C. in a CO2 incubator to allow the monocytes to settle, leaving the lymphocytes in suspension. Following incubation, 100 μL were aspirated out of each well to ensure removal of the lymphocyte population.
The monocytes were differentiated to macrophages by addition of 200 ng/mL of recombinant human GM-CSF (4 mg/mL stock) and incubated at 37° C./5% CO2 for 6 days. The medium was changed every two days by removing half the volume of medium in the well and re-supplementing with fresh RPMI complete medium and recombinant human GM-CSF.
Following differentiation, the cells were treated in duplicates with a compound according to the invention in a total volume of 50 μL, maintaining a final DMSO percentile of 0.5%. The plate was transferred to an incubator maintained at 37° C./5% CO2 for 2 hours. The cells were stimulated with 100 ng/mL of LPS (4×) (1 mg/mL stock) in a total volume of 50 μL.
The plate was transferred to an incubator maintained at 37° C./5% CO2 for 16 hours.
• 1. Each well from a pre-coated ELISA plate was aspirated and washed with wash buffer (0.05% Tween 20 in PBS; pH 7.2-7.4) by filling each well with wash buffer (300 μL). The process was repeated two times for a total of three washes. The liquid was removed completely at each step. After the last wash, any remaining wash buffer was removed. • 2. Plates were blocked by adding 300 μL of block buffer (1% BSA in PBS) to each well and incubated at room temperature for 1 hour. • 3. The aspiration/wash as in step 1 was repeated. • 4. 100 μL of sample or standard prepared in reagent diluent (0.1% BSA, 0.05% Tween 20 in PBS pH7.2-7.4) was added. The wells were covered with an adhesive strip and incubated for 2 hours at room temperature. • 5. The aspiration/wash as in step 1 was repeated. • 6. 100 μL of detection antibody, diluted in reagent diluent, was added to each well. The wells were covered with a new adhesive strip and incubated for 2 hours at room temperature. • 7. The aspiration/wash as in step 1 was repeated. • 8. 100 μL of the working dilution (1:200 from the stock) and streptavidin-HRP was added to each well. The plate was covered and incubated for 20 minutes at room temperature. • 9. 100 μL of substrate solution (1:1 mixture of H2O2 and tetramethylbenzidine) was added to each well and incubated for 20 minutes at room temperature. • 10.50 μL of stop solution (2N H2SO4) was added to each well. The plate was tapped gently to ensure thorough mixing. • 11. The optical density of each well was determined immediately using a microplate reader (Spectramax Plus) set to 450 nm. Cytokine Viability Assessment […]

[1] = tested on: human primary macrophages; test: Cell viability assessment (CellTiter-Glo) in the macrophage assay plates; format: cell-based; design: concentration or dose not given beside the values; conditions: CellTiter-Glo luminescent assay
Experimental: 2×10^5 PBMCs at a total volume of 200 μL/well were plated into a 96-well plate and incubated for 4 hrs at 37° C. in a CO2 incubator to allow the monocytes to settle, leaving the lymphocytes in suspension. Following incubation, 100 μL were aspirated out of each well to ensure removal of the lymphocyte population. The monocytes were differentiated to macrophages by addition of 200 ng/mL of recombinant human GM-CSF (4 mg/mL stock) and incubated at 37° C./5% CO2 for 6 days. The medium was changed every two days by removing half the volume of medium in the well and re-supplementing with fresh RPMI complete medium and recombinant human GM-CSF. Following differentiation, the cells were treated in duplicates with a compound according to the invention in a total volume of 50 μL, maintaining a final DMSO percentile of 0.5%. The plate was transferred to an incubator maintained at 37° C./5% CO2 for 2 hours. The cells were stimulated with 100 ng/mL of LPS (4×) (1 mg/mL stock) in a total volume of 50 μL. The plate was transferred to an incubator maintained at 37° C./5% CO2 for 16 hours. 100 μl/well volume of CellTiter-Glo® luminescent reagent was added to the assay plates and incubated at room temperature for 30 mins on a plate shaker. Following incubation, the luminescent signal of each well was determined using a microplate reader (Perkin Elmer ENVISION 2104). Cytotoxicity of the test compounds was determined utilizing the following formula: % Cytotoxicity=100−(100*(Average Test Compound Counts−Average Negative Control Counts)/(Average Positive Control Counts−Average Negative Control Counts)) All of the “Counts” stated in this formula are derived from “luminescent signal” determined as described for the cytokine viability assessment.

[2] = tested on: Non-Alcoholic Steatohepatitis (NASH) in male C57BL/6 mice; test: Treatment of non-alcoholic steatohepatitis (NASH) in male C57BL/6 mice (streptozotocin + high-fat diet); format: in vivo; conditions: for hepatomegaly and liver to body weight ratio: 28 days of treatment, FIG. 3
Experimental: Example 15: Effect of Compound 5 and 7 in the Treatment of Non-Alcoholic Steatohepatitis (NASH) in Male C57BL/6 Mice
Timed pregnant mice (n=30) were selected for the study. The delivered pups were subcutaneously injected on the post-natal day 2 (PND-2) with 200 μg of Streptozotocin and were allowed to remain with the mother until they reached the weanling age. After weanling, the male pups were selected and fed with 60% kcal fat diet (Research Diet-D12492) for the next 2 weeks. All the animals were observed twice daily for clinical signs.
Mice were dosed with vehicle, test compounds and reference compound (elafibranor) twice daily morning (9.00 AM) and evening before the start of dark cycle (6:00 PM) from day 0 to 28.
Animal body weight measurements were made daily for the complete duration of the experiment.
Animals were dosed for 28 days (from week 6 to 10) with the test and reference compounds.
Blood glucose was estimated before the treatment start and on the termination day 28. Serum ALT and AST levels were measured from the plasma before the treatment start and on day 28.
Histopathology analysis including H&E staining, Masson's trichrome staining and Oil-Red-O (ORO) staining was performed for the liver tissues.
All the H&E stained tissue sections were examined by light microscopy. As per the below grading system (Kleiner et al., 2005) in 200× objective lens, NAFLD scoring was done for steatosis, lobular inflammation and hepatic ballooning.
All the Masson's trichrome stained tissue sections were examined by light microscopy in 100× objective lens. Randomly selected five fields (approx 684.85 μm×917.11 m per field) from each liver were subjected to collagen proportion area measurement by using Image Pro Premier 9.1 software. The percentage of collagen proportion area was calculated by dividing collagen tissue area by total tissue area.
All the Oil-Red-O stained tissue sections were examined by light microscopy in 100× objective lens. Randomly selected five fields (approximately 688.33 μm×922.45 μm per field) from each liver were subjected to measure stained area by using Image Pro Premier 9.1 software. The percentage of stained area was calculated by dividing lipid stained tissue area by total tissue area.

Bleomycin-induced IPF = test: Treatment of bleomycin-induced IPF in mice; format: in vivo
Source text: Example 16: Effect of Compound 7 in the Treatment of Bleomycin-Induced IPF Timed pregnant mice (n=30) were selected for the study. The delivered pups were subcutaneously injected on the post-natal day 2 (PND-2) with 1.5 U/kg of Bleomycin (intra-tracheal) and were allowed to remain with the mother until they reached the weanling age. After weanling, the male pups were selected and fed with 60% kcal fat diet (Research Diet-D12492) for the next week. All the animals were observed twice daily for clinical signs. Mice were orally dosed with vehicle, test compounds and reference compound (Pirfenidone) twice daily morning (9.00 AM) and evening before the start of dark cycle (6:00 PM) from day 0 to 14. Animal body weight measurements were made daily for the complete duration of the experiment. Animals were dosed for 14 days with the test and reference compounds. Lung hydroxyproline level was estimated before the treatment start and on the termination day 14. Total cell count and differential leukocyte count in BALF were measured before the treatment start and on […]. Histopathology analysis in the form of H&E Ashcroft score was performed for the lung tissues. All the H&E stained tissue sections were examined by light microscopy. As per the below grading system (Kleiner et al., 2005) in 200× objective lens, IPF scoring was carried out. Collagen Proportion Area (% CPA) Measurement: Masson's Trichrome Staining All the Masson's trichrome stained tissue sections were examined by light microscopy in 100× objective lens. Randomly selected five fields (approx 684.85 μm×917.11m per field) from each lung were subjected to collagen proportion area measurement by using Image Pro Premier 9.1 software. The percentage of collagen proportion area was calculated by dividing collagen tissue area by total tissue area.

[3] = 3 mg/kg dose, twice daily, 28 days, H&E NAFLD scoring

SMILES	IC50 (IL-1β) [µM]	Cell viability [1] [%]	other results
CN(C)S(=O)(=O)c1cnc(N2CCC(Oc3ccc(Cl)cc3)CC2)c(-c2ccc3c(c2)CCO3)c1 [Compound 1]	0.115	100	
CN(C)S(=O)(=O)c1cnc(N2CCC(Oc3ccc(Cl)cc3)CC2)c(Nc2ccc3c(c2)CCO3)c1 [Compound 2]	0.029	100	
CN(C)S(=O)(=O)c1cnc(N2CCC(Oc3ccc(Cl)cc3)CC2)c(Nc2ccc3c(c2)OCO3)c1 [Compound 3]	0.121	100	
CN(C)S(=O)(=O)c1cnc(N2CCC(Oc3ccc(C(N)=O)nc3)CC2)c(Oc2ccc(OC(F)(F)F)cc2)c1 [Compound 9]	0.531	100	
CCOc1ccc(Oc2cc(S(C)(=O)=O)cnc2N2CCC(Oc3ccc(Cl)cc3)CC2)cc1 [Compound 11]	0.753	100	
CSc1ccc(C(=O)/C=C/c2cc(C)c(OC(C)(C)C(=O)O)c(C)c2)cc1 [Elafibranor, reference compound]			hepatomegaly and liver to body weight ratio [2]: hepatomegaly and increase in liver to body weight ratio
Cc1ccc(=O)n(-c2ccccc2)c1 [Pirfenidone, reference compound]			BALF macrophage counts (Bleomycin-induced IPF; compared with Bleomycin control, Compound 7 p>0.05, Pirfenidone p<0.05, FIGS. 5A and 5B): reduced; % CPA (Collagen Proportion Area) (Bleomycin-induced IPF; lung, Masson's trichrome, in comparison with Bleomycin control, p<0.05, FIG. 6B): significant reduction; fibrosis score (H&E Ashcroft Score) (Bleomycin-induced IPF; lung, in comparison with Bleomycin control, p<0.05, FIG. 6A): significant reduction

Further compounds by falling IC50 (IL-1β), results first:

IC50 (IL-1β) [µM]	SMILES	Cell viability [1] [%]	other results
2.3	CN(C)S(=O)(=O)c1cnc(N2CCC(Oc3ccc(C(N)=O)nc3)CC2)c(Oc2ccc3c(c2)CCO3)c1 [Compound 12]	100	
0.41	Cc1ccc(Oc2cc(S(=O)(=O)N(C)C)cnc2N2CCC(Oc3ccc(C(N)=O)nc3)CC2)cc1 [Compound 10]	100	
0.337	CCOc1ccc(Oc2cc(S(=O)(=O)N(C)C)cnc2N2CCC(Oc3ccc(C(N)=O)nc3)CC2)cc1 [Compound 8]	100	
0.3	CCCOc1ccc(Nc2cc(S(=O)(=O)N(C)C)cnc2N2CCN(Cc3ccc(Cl)cc3)CC2)cc1 [Compound 4]	100	
0.028	CN(C)S(=O)(=O)c1cnc(N2CCC(Oc3ccc(Cl)cc3)CC2)c(Oc2ccc3c(c2)CCO3)c1 [Compound 5]	100	NAFLD activity score (NAS) ([2]; 3 mg/kg dose, twice daily, 28 days, FIG. 1): significant reduced NAS score than disease controls; hepatic ballooning [2, 3]: trend towards decreased; lobular inflammation in the liver [2, 3]: significantly reduced; steatosis in the liver [2, 3]: trend towards decreased; hepatomegaly and liver to body weight ratio [2]: did not show any hepatomegaly and increase in liver to body weight ratio; Serum AST levels ([2]; after 28 days of treatment, FIG. 2): significantly reduced
0.013	CN(C)S(=O)(=O)c1cnc(N2CCC(Oc3ccc(Cl)cc3)CC2)c(Nc2ccc3oc(CO)cc3c2)c1 [Compound 6]	100	

— patent publication US12071431B2, “Pyridin-sulfonamide compounds for the treatment of conditions related to interleukin 1 beta” (ALLINKY BIOPHARMA, priority 2018, dated 2024)
